Data taken from patent publication US7459282B2, “Use of c-Jun or c-Jun activating agents such as UV or c-Jun N-terminal kinases (JNKs) for treating cancer” (Biotech Research Ventures Pte Limited, priority 2001, dated 2008).
Square brackets hold non-standard residues; d marks the D form. Peptide text beside a SMILES is read from it. Nle = CCCC[C@H](N)C(=O)O

Key:
p73 [1] = test: Egfp reporter screen for p73 activation in H1299-p53RE cells; assay type: cell-based, human; settings: p53-null H1299 reporter cells
From the text: The screen utilises a p53 null cell line, H1299, which is a human lung cancer cell line. In these cells, p53 is not active as the gene is deleted. The inventors have transfected a plasmid containing the p53/p73 binding DNA sequences (or responsive element) driving the enhanced green fluorescent protein gene (Egfp) as a reporter (FIG. 8). Generally, the reporter would be turned “on” when p53 or its homologues bind to the responsive element. […] However, when the cells are exposed to compounds that activate p73, which is normally present in a dormant state in these cells, then these cells would fluoresce and would be visible as green cells under the fluorescence microscope.
It is important to note that all the cells in the population expressed Egfp, implying that the cell-system generated is homogenous and results in a 100% response.

p73 [2] = test: Western blot of endogenous p73 levels in fibroblasts after cisplatin; assay type: cell-based, mouse; design: levels of p73 protein: dose or concentration left out as unconfirmed
Procedure: FIG. 1. […] These extracts were analysed by Western blotting for the expression of p73 and phosphorylated c-Jun using specific antibodies.
FIG. 2. c-Jun is necessary for cisplatin-induced p73 expression and apoptosis. […] (b) Extracts from cells described in (a) were analyzed for endogenous p73 levels by Western blotting.
Although p73 is a structural and functional homologue of the p53 tumour suppressor protein, p73 is only activated by a subset of agents that activate p53. […] The inventors have thus investigated the molecular mechanism(s) by which p73 activity is regulated. […] The increase in p73 levels in cisplatin-treated cells correlates with the phosphorylation of the proto-oncogene product, c-Jun (FIG. 1). Phosphorylated c-Jun was not detected upon gamma-irradiation of cells (FIG. 1).

p73 [3] = test: Western blot of p73 in MCF-7-p73 cells after proteosome inhibitor; assay type: cell-based, human; settings: proteosome inhibitor for 3 hours
Procedure: FIG. 4. c-Jun is required for UV-mediated p73 stabilization. (a) MCF-7 cells stably transfected with p73 and parental MCF-7 cells were treated with the proteosome inhibitor for 3 hours or UV irradiated (50 J/m^2) and cell extracts were analyzed 2 hours post-irradiation by Western blotting as described in FIG. 1. (b) c-Jun^−/− and c-Jun^−/−+c-Jun mouse embryonic fibroblasts were transfected with the indicated plasmids and were untreated or UVC irradiated (40 J/m^2) or gamma-irradiation (10Gy) 24 hours post-transfection. 24 hours after irradiation, cell extracts were prepared and analyzed for p73 protein levels by Western blotting.
To analyze if c-Jun provides the stabilization signal, the inventors generated MCF-7 breast carcinoma cells stably expressing p73 (MCF-7-p73 cells), which would thus provide a detectable level of basal p73 expression. The overexpressed p73 was expressed in these cells (FIG. 4a). […] However, when these cells were treated with UV irradiation, which is a potent inducer of c-Jun but not p73 (Jost C A. et al, p73 is a simian [correction of human] p53-related protein that can induce apoptosis, Nature, 1997, Sep. 11; 389(6647):191-4.), p73 expression was detected as early as 2 hours post-irradiation, in contrast to the parental MCF-7 cells (FIG. 4a).

Compound	response of the cell population (cells expressing Egfp) (p73 [1]; cisplatin treated)	expression of Egfp (endogenous p73 activity) (p73 [1]; flow cytometer)	p73 protein induction (p73 [2]; absence of c-Abl, cisplatin)	p73 protein induction (p73 [2]; c-Jun-/- cells, cisplatin 25 μM, 24 hours)	p73 protein induction (p73 [2]; jun-/-+c-Jun cells, cisplatin 25 μM, 24 hours)	levels of p73 protein (p73 [2]; wild-type mouse embryonic fibroblasts, cisplatin (FIG. 1), 24 hours post-treatment)	expression of p73 protein (p73 [3])
N.N.[Cl][Pt][Cl] [cisplatin]	100%	expression of Egfp in all the cells	severely compromised	abrogated the induction of p73	induced significantly	increase in the levels of p73 protein	
CCCC[C@@H](C=O)NC(=O)[C@H](CC(C)C)NC(=O)[C@H](CC(C)C)NC(C)=O [ALLN] (Ac-Leu-Leu-[Nle]-aldehyde)							did not result in the increased expression of p73 protein
